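Growth conditions: 96-well plates. Treatment: test compound, 48 hours, 5 concentrations. Analysis: linear interpolation between bracketing concentrations; unreached endpoints set to highest concentration. GI50 = concentration required for 50% inhibition of growth. TGI denotes the concentration required for complete inhibition of growth.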

Among the test systems are HT29 colon; RXF 393 renal; UACC-62 melanoma; A498 renal; NCI-H460 lung; UO-31 renal; NCI/ADR-RES ovarian; LOX IMVI melanoma.
Common to all, as to test: NCI anticancer screen, dose series, 48 h

For `O=C(Cc1ccc(Nc2ccnc(C(F)(F)F)c2)cc1)Nc1cc(Cl)ccc1O`, the GI50 with HT29 colon was 21.4 µM; in the assay with RXF 393 renal, 25 µM; in the assay with UACC-62 melanoma, 2.75 µM; in the assay with A498 renal, 3.03 µM; in the assay with NCI-H460 lung, 6.92 µM; with UO-31 renal, 2.84 µM. In addition, the GI50 in the assay on NCI/ADR-RES ovarian is 3.46 µM; in the assay on LOX IMVI melanoma, 6.46 µM. Besides, the TGI came to 53.5 µM with HT29 colon; 52.4 µM in the assay on RXF 393 renal; 13.9 µM with UACC-62 melanoma; 10.6 µM with A498 renal; 27.9 µM with NCI-H460 lung; 18.2 µM with UO-31 renal. Further, the TGI turned out to be 24.5 µM in the assay with NCI/ADR-RES ovarian and 28.5 µM with LOX IMVI melanoma.

With `COc1ccc2c(c1)[nH]c(=O)c1c3cc(OC)c(OC)cc3cn21`, the GI50 in the assay with HT29 colon, with RXF 393 renal, in the assay with UACC-62 melanoma, in the assay on A498 renal, in the assay on NCI-H460 lung and with UO-31 renal was less than 0.01 µM throughout. Further, the GI50 in the assay with NCI/ADR-RES ovarian and in the assay with LOX IMVI melanoma was less than 0.01 µM throughout. In addition, the TGI in the assay on RXF 393 renal was 1.89 µM; in the assay on UACC-62 melanoma, 21 µM; in the assay with A498 renal it was 0.072 µM; with NCI-H460 lung, 1.04 µM; in the assay on UO-31 renal, 17.4 µM; with NCI/ADR-RES ovarian, less than 0.0133 µM. In the assay on LOX IMVI melanoma, this molecule registered a TGI of 1.69 µM.

Consider `O=C(Cc1csc2nc(-c3ccc(Br)cc3)cn12)N/N=C/c1ccc(Cl)cc1Cl`, for which the GI50 in the assay on HT29 colon is 40.8 µM; in the assay on RXF 393 renal it was 28.4 µM; in the assay on UACC-62 melanoma, 23.3 µM; with A498 renal it was 29.3 µM; with NCI-H460 lung it was more than 100 µM; in the assay on UO-31 renal, 72.4 µM. The values for the GI50 with NCI/ADR-RES ovarian and in the assay with LOX IMVI melanoma were 17.2 µM and 21.2 µM, respectively. The TGI is more than 100 µM in the assay on HT29 colon; 85.1 µM in the assay with RXF 393 renal; 67.7 µM in the assay with UACC-62 melanoma; 62.7 µM in the assay on A498 renal; more than 100 µM with NCI-H460 lung; more than 100 µM with UO-31 renal. Further, the TGI turned out to be 52.3 µM with NCI/ADR-RES ovarian and 48.6 µM in the assay on LOX IMVI melanoma.

For `O=C(Cn1c(C(=O)c2ccc(Cl)cc2)nc(-c2ccccc2)c1-c1ccccc1)c1ccc(Cl)cc1`, the GI50 with HT29 colon, in the assay on RXF 393 renal, in the assay with UACC-62 melanoma, in the assay with A498 renal, with NCI-H460 lung and with UO-31 renal was more than 100 µM throughout. The GI50 in the assay with NCI/ADR-RES ovarian and in the assay with LOX IMVI melanoma was more than 100 µM throughout. Moreover, the TGI in the assay on HT29 colon, with RXF 393 renal, with UACC-62 melanoma, in the assay on A498 renal, in the assay on NCI-H460 lung and in the assay on UO-31 renal was more than 100 µM throughout. Besides, the TGI in the assay with NCI/ADR-RES ovarian and in the assay on LOX IMVI melanoma was more than 100 µM each time.

Regarding `CN(C)c1ccc(Nc2c3ccccc3nc3cc(NC(=O)CCN4CCCC4)ccc23)cc1`, the GI50 is 0.475 µM with HT29 colon; 0.466 µM in the assay with RXF 393 renal; 0.774 µM in the assay on UACC-62 melanoma; 0.442 µM with A498 renal; 0.0423 µM in the assay with NCI-H460 lung; 0.595 µM in the assay with UO-31 renal. Also, the GI50 in the assay on NCI/ADR-RES ovarian was 2.91 µM; in the assay with LOX IMVI melanoma it was 0.21 µM. Besides, the TGI in the assay with HT29 colon worked out at 2.06 µM; with RXF 393 renal it was 1.69 µM; in the assay on UACC-62 melanoma it was 2.11 µM; in the assay with A498 renal, 1.98 µM; in the assay on NCI-H460 lung it was 0.683 µM; in the assay with UO-31 renal, 1.92 µM. Besides, the TGI in the assay on NCI/ADR-RES ovarian was determined as 12.9 µM; with LOX IMVI melanoma, 1.46 µM.

Consider `NC(=O)c1sc(-n2cnc3ccc(C(F)(F)F)cc32)cc1OCc1ccccc1Br`, for which the GI50 in the assay on HT29 colon is 0.858 µM; in the assay on RXF 393 renal it was 0.566 µM; with UACC-62 melanoma, 1.38 µM; in the assay on A498 renal it was 2.24 µM; with NCI-H460 lung it was 0.946 µM; with UO-31 renal, 5.48 µM. The GI50 with NCI/ADR-RES ovarian was 0.764 µM; with LOX IMVI melanoma, 1.5 µM. Also, the TGI was more than 25 µM in the assay with HT29 colon; 1.94 µM in the assay with RXF 393 renal; 17.9 µM in the assay with UACC-62 melanoma; 16.2 µM with A498 renal; more than 15.4 µM in the assay on NCI-H460 lung; more than 25 µM with UO-31 renal. The TGI in the assay on NCI/ADR-RES ovarian and in the assay on LOX IMVI melanoma was more than 25 µM throughout.

For `CCCCCCCCNC(C)C(O)c1ccc(SC(C)C)cc1` (stereo not drawn), the GI50 with HT29 colon was 0.654 µM; with RXF 393 renal it was 1.45 µM; in the assay with UACC-62 melanoma, 1.53 µM; with A498 renal it was 1.5 µM; in the assay on NCI-H460 lung it was 1.85 µM; with UO-31 renal it was 1.77 µM. Further, the GI50 in the assay with NCI/ADR-RES ovarian is 1.57 µM; in the assay with LOX IMVI melanoma, 1.54 µM. Further, the TGI in the assay with HT29 colon worked out at 1.91 µM; in the assay with RXF 393 renal, 2.81 µM; in the assay on UACC-62 melanoma, 2.95 µM; in the assay on A498 renal, 2.86 µM; in the assay on NCI-H460 lung it was 3.56 µM; with UO-31 renal it was 3.32 µM. The TGI in the assay on NCI/ADR-RES ovarian was 3.17 µM; in the assay with LOX IMVI melanoma, 2.92 µM.

On to `CCSc1ccc([C@@H]2[C@@H](N)C(=O)N2c2cc(OC)c(OC)c(OC)c2)cc1`, for which the GI50 was 0.0333 µM with HT29 colon; 0.245 µM in the assay on RXF 393 renal; 0.0451 µM in the assay with UACC-62 melanoma; 0.0563 µM with A498 renal; 0.0488 µM in the assay with NCI-H460 lung; 0.59 µM in the assay on UO-31 renal. Besides, the results for the GI50 in the assay on NCI/ADR-RES ovarian and with LOX IMVI melanoma were 0.13 µM and 0.0754 µM, respectively. Further, the TGI in the assay with HT29 colon is 18 µM; in the assay with RXF 393 renal it was more than 100 µM; in the assay on UACC-62 melanoma, more than 100 µM; with A498 renal, 8.29 µM; with NCI-H460 lung, more than 100 µM; with UO-31 renal, more than 100 µM. Besides, the TGI in the assay with NCI/ADR-RES ovarian and with LOX IMVI melanoma was more than 100 µM in each case.

Turning to `O=C(Nc1ccc(Oc2ccc(NC(=O)Nc3ccc([N+](=O)[O-])cc3)cc2)cc1)Nc1ccc([N+](=O)[O-])cc1`, the GI50 in the assay on HT29 colon is 2 µM; with RXF 393 renal, 2.94 µM; in the assay with UACC-62 melanoma, 1.36 µM; in the assay on A498 renal, 1.97 µM; with NCI-H460 lung, 1.74 µM; in the assay with UO-31 renal it was 0.516 µM. Moreover, the GI50 in the assay with NCI/ADR-RES ovarian was 3.88 µM; in the assay with LOX IMVI melanoma, 1.78 µM. Also, the TGI is 15.9 µM in the assay on HT29 colon; more than 24.4 µM in the assay with RXF 393 renal; 11.1 µM in the assay with UACC-62 melanoma; 7.23 µM in the assay on A498 renal; 6.61 µM with NCI-H460 lung; more than 26.4 µM in the assay with UO-31 renal. Further, the TGI in the assay on NCI/ADR-RES ovarian was more than 91.3 µM; with LOX IMVI melanoma it was 10.7 µM.

For the origin of these results see PubChem BioAssay (NCI).
